The source of these data is patent US20220304929A1, “LIPIDS FOR DELIVERY OF CHARGED MATERIAL, FORMULATIONS THEREOF AND METHOD FOR MAKING SAME” (INTEGRATED NANOTHERAPEUTICS INC., priority 2019, published 2022).

Series [1] can be described thus: LNP particle size and polydispersity by dynamic light scattering. The format is physicochemical.
Series [2] in a line: Peptide incorporation into LNP (Peptide:Lipid ratio; BCA or CBQCA protein quantification). Type of series: physicochemical. As for the experimental part:
(§1) Lipid concentrations were determined by measuring total cholesterol using the Cholesterol E enzymatic assay kit from Wako Chemicals USA (Richmond, Va.).
Quantification of protein/peptide was performed with the use of either the BCA Protein Assay (Pierce) or the CBQCA Protein Quantitation Kit (Invitrogen) according to the manufacturer's instructions.

A short description of series [3]: HA incorporation into LNP (HA:Lipid ratio). Type of series: physicochemical. Particulars: LNP containing ionizable lipid and HA (8-15 kDa). As for the experimental part:
as §1
Hyaluronic acid was used as an example of anionic cargos. LNPs were prepared as described in Example 2 containing HA with a molecular weight of 8-15 kDa.

Series [4] in a line: RNA or antisense oligonucleotide encapsulation efficiency (Quant-iT Ribogreen RNA / Oligreen ssDNA assays). The format is physicochemical. On the procedure:
The RNA or antisense oligonucleotide encapsulation efficiency was determined using the Quant-iT Ribogreen RNA or Oligreen ssDNA Assays, respectively (Life Technologies, Burlington, ON). Briefly, LNP was incubated at 37° C. for 10 min in the presence or absence of 1% Triton X-100 (Sigma-Aldrich, St. Louis, Mo.) followed by the addition of the Ribogreen or Oligreen reagent. The fluorescence intensity (Ex/Em: 480/520 nm) was determined and samples treated with Triton X-100 represent total nucleic acid while untreated samples represent unencapsulated nucleic acid.
To prepare the LNPs, ionizable lipid, DSPC, cholesterol and PEG-DMPE were dissolved in ethanol. The siRNA was dissolved in pH 4.0-6.2 buffer composed of 10-50 mM acetate, succinate or citrate. In select cases, 10-50 mM 4-(2-Hydroxyethyl)piperazine-1-ethanesulfonic acid (HEPES) or 2-(N-Morpholino)ethanesulfonic acid (MES) buffer was used. LNP were prepared by rapidly mixing the lipid components in ethanol (in molar ratio of 50/10/38.5/1.5 of […]) with nucleic acids in aqueous buffer at a volumetric flow rate ratio of 1:3 (ethanol to aqueous, combined flow rate >12 mL/min) at room temperature. Typically, siRNA/lipids ratios were targeted for 0.056 wt/μmol. The product was then dialyzed against 1× phosphate-buffered saline (PBS) at pH 7.4 for 24 hours to remove residual ethanol and to raise the pH. PBS was refreshed after 4 hours.

In the next series the test system is HepG2 cells. The series is described as follows: LNP luciferase mRNA expression in cultured HepG2 cells. The format is cell-based. The settings on record: 0.125-1 μg/mL luciferase mRNA, 16-24 hr. On the procedure: Cells were treated with LNP formulations containing ionizable lipids of the disclosure and luciferase mRNA at concentrations of 0.125-1 μg/mL. The level of luminescence was measured post treatment. From left-to-right, the ionizable lipids incorporated in the LNPs were INT-A001 (white bar), INT-A002 (dotted bar), INT-A003 (black bar) and INT-A004 (gray bar).
The activity of the ionizable lipids in vitro was evaluated in cultured HepG2 cells. LNPs containing Firefly Luciferase mRNA were prepared as described in Example 2. LNPs were diluted to 0.125-1 μg/mL with DMEM media containing 10% FBS and incubated with HepG2 cells for 16-24 hr. Cells were then lysed with Glo-Lysis Buffer (Promega). Equal amounts of Steady-Glo reagent (Promega) was added to each sample and the level of luminescence was determined using a Synergy LX plate reader (BioTek).

In a further series the test system is factor VII (FVII). The series is described as follows: LNP-siRNA activity in the mouse Factor VII model. The format is in vivo. The settings on record: C57Bl/6 mice, 24 hours post-injection; for Activity in mediating FVII gene-silencing (residual serum FVII levels): i.v. tail vein, 0.03-0.3 mg/kg siRNA. On the procedure:
Lipid nanoparticle (LNP) formulations containing cationic lipids of the disclosure and FVII siRNA were injected via a tail vein in C57Bl/6 wild-type mice and the levels of FVII in plasma was measured post injection. The mice were injected with LNP-siRNA at doses of 0.03 (left bar), 0.1 (middle bar) and 0.3 mg/kg (right bar). The cationic lipids incorporated in the LNPs were INT-A001, INT-A002, INT-A003 and INT-A007.
LNPs prepared as described in Example 2 containing siRNA against factor VII (FVII) were diluted with PBS such that injection volumes were maintained at 10 mL/kg body weight and administered (based on siRNA concentration) intravenously via tail vein in 6 to 8 weeks old female C57Bl/6 mice (Charles River Laboratories, Wilmington, Mass.). At 24 hours post-injection, animals were euthanized and blood was collected via intracardiac sampling. Blood samples were allowed to coagulate at 4° C. overnight and the serum was separated followed by centrifugation for 15 min at 12,000 rpm. The serum FVII levels were determined using the Biophen VII chromogenic assay (Aniara, Mason, Ohio) according to the protocol of the manufacturer.

Series [5] relates to Firefly Luciferase mRNA expression in liver. Description: LNP luciferase mRNA expression in vivo in the liver of mice. Particulars: C57Bl/6 mice, 1 mg/kg mRNA i.v., liver at 4 hours post-injection. Details: species or system mouse. As for the experimental part:
Lipid nanoparticle (LNP) formulations containing cationic lipids of the disclosure and Luciferase mRNA were injected via a tail vein in C57Bl/6 wild-type mice at mRNA dose of 1 mg/kg and the luminescence in the liver was measured post injection. From left-to-right, the cationic lipids incorporated in the LNP-mRNA were INT-A001, INT-A002, INT-A003 and INT-A004. Untreated animals were injected with phosphate buffered saline (PBS).
To assess in vivo activity, LNPs containing Firefly Luciferase mRNA were prepared as described in Example 2. LNPs were diluted with PBS and administered at 1 mg/kg intravenously via tail vein in 6 to 8 weeks old female C57Bl/6 mice (Charles River Laboratories, Wilmington, Mass.). At 4 hours post-injection, animals were euthanized and the livers were collected. Approximately 100 mg of liver was homogenized in 0.5 mL Glo Lysis Buffer (Promega). The homogenate was further diluted 1:4 with the lysis buffer and then 50 μL of diluted homogenate was added to 50 μL Steady-Glo reagent (Promega). The level of luminescence was determined using a Synergy LX plate reader (BioTek).

Series [6] in a line: Apparent pKa of LNP systems (TNS fluorescence assay). Particulars: LNP containing ionizable lipid and FVII siRNA. The format is physicochemical. On the procedure:
Apparent acid dissociation constants (pKa) of LNP systems were determined according to a procedure described in the literature (Jayaraman, M., et al., Maximizing the potency of siRNA lipid nanoparticles for hepatic gene silencing in vivo. Angewandte Chemie, 2012. 51(34): p. 8529-33). Briefly, 2-(p-toluidino)-6-napthalene sulfonic acid (TNS, Sigma-Aldrich, St. Louis, Mo.) and LNP were diluted in buffer (10 mM HEPES, 10 mM MES and 10 mM ammonium acetate) with pH ranges from 2.5 to 11. Final concentration of TNS or total lipid was 6 μM. Samples were then mixed and fluorescence intensity was measured (Ex/Em: 321/445 nm) using a Perkin Elmer LS55. A sigmoidal best fit analysis was applied and the pKa was measured as the pH at half-maximal fluorescence intensity.

The mark [7] stands for this setting: LNP containing ionizable lipid and a 2.0 kDa basic peptide (net charge +4).
The mark [8] stands for this setting: LNP containing ionizable lipid and HA (8-15 kDa).
[9] abbreviates: LNP containing ionizable lipid and Luciferase mRNA.
[10] abbreviates: LNP containing ionizable lipid and a 4.2 kDa acidic peptide (net charge -3).
Setting [11] is: LNP containing ionizable lipid and antisense oligonucleotide.
[12] abbreviates: LNP containing ionizable lipid and siRNA.
The mark [13] stands for this setting: LNP containing ionizable lipid and a 2.0 kDa acidic peptide (net charge -3).

Each structure is given as a SMILES string. Entries after “also recorded” stand apart in the source; their conditions may differ.

Regarding `CCCCC/C=C\C/C=C\CCCCCCCC(=O)O[C@@H](CCCCCCCC)[C@@H](CCCCCCCC(=O)O)OC(=O)CCCCCCC/C=C\C/C=C\CCCCC` (racemic) [INT-A008, (±)-syn-9,10-Dilinoleoxystearic Acid], in series [1] (setting [7]), the “Particle Diameter” value worked out at 39 nm and the “Polydispersity index (PDI)” value worked out at 0.058. The “Peptide:Lipid” value in series [2] (setting [7]) is recorded as 0.104 wt/wt.
Take `CCCCC/C=C\C/C=C\CCCCCCCC(=O)O[C@@H](CCCCCCCC)[C@@H](CCCCCCCC(=O)OCCCN(CC)CC)OC(=O)CCCCCCC/C=C\C/C=C\CCCCC` (racemic) [INT-A002, 3-(Diethylamino)propyl (±)-syn-9,10-dilinoleoxystearate]: the “HA:Lipid” value in series [3] is listed as 0.093 wt/wt. For the same molecule, the “Particle Diameter” value in series [1] (setting [8]) worked out at 83 nm; in series [1] (setting [9]), 47 nm; in series [1] (setting [10]), 62 nm; in series [1] (setting [11]) it was 49 nm; in series [1] (setting [12]) it was 52 nm. Moreover, the “Polydispersity index (PDI)” value came to 0.027 in series [1] (setting [8]); 0.053 in series [1] (setting [9]); 0.015 in series [1] (setting [10]); 0.096 in series [1] (setting [11]); 0.063 in series [1] (setting [12]). Further, the “Encapsulation Efficiency” value in series [4] (setting [9]) turned out to be 99%; in series [4] (setting [11]), 92%; in series [4] (setting [12]) it was 97%. Further, the “Activity in delivering mRNA and inducing its expression in vitro (luminescence)” value (shortened to “Activity … (luminescence)”) in the series on HepG2 cells is reported as “can effectively deliver mRNA”. Besides, the “ED 50 (effective dose to achieve 50% gene-silencing)” value with factor VII (FVII) (i.v. LNP FVII siRNA, estimated) was “less than 0.1 mg/kg”. In the series with factor VII (FVII), the “Activity in mediating FVII gene-silencing (residual serum FVII levels)” value is “active in mediating gene-silencing; also recorded: most active”. The “Activity in delivering mRNA and inducing mRNA expression in vivo (liver luminescence)” value (shortened to “Activity … (liver luminescence)”) in series [5] (1 mg/kg) is given as “can effectively deliver mRNA; also recorded: most active”. Besides, the “Peptide:Lipid” value in series [2] (setting [10]) is on record as 0.157 wt/wt.
As to `CCCCCCCCC(CCCCCC)C(=O)O[C@@H](CCCCCCCC)[C@@H](CCCCCCCC(=O)O)OC(=O)C(CCCCCC)CCCCCCCC` (mixture of isomers) [INT-A009, (±)-syn-9,10-Bis(2-hexyldecanoyloxy)stearic Acid], in series [1] (setting [7]), the “Particle Diameter” value was 39 nm and the “Polydispersity index (PDI)” value came to 0.057. Besides, the “Peptide:Lipid” value in series [2] (setting [7]) stood at 0.121 wt/wt.
Consider `CCCCC/C=C\C/C=C\CCCCCCCC(=O)O[C@@H](CCCCCCCC)[C@@H](CCCCCCCC(=O)OCCCN(C)C)OC(=O)CCCCCCC/C=C\C/C=C\CCCCC` (racemic) [INT-A003, 3-(Dimethylamino)propyl (±)-syn-9,10-dilinoleoxystearate], for which, in series [3], the “HA:Lipid” value was 0.094 wt/wt. Moreover, the “Particle Diameter” value in series [1] (setting [8]) stood at 64 nm; in series [1] (setting [9]), 49 nm; in series [1] (setting [13]) it was 142 nm; in series [1] (setting [10]) it was 76 nm; in series [1] (setting [11]) it was 54 nm; in series [1] (setting [12]) it was 55 nm. The “Polydispersity index (PDI)” value in series [1] (setting [8]) was found to be 0.035; in series [1] (setting [9]), 0.050; in series [1] (setting [13]), 0.025; in series [1] (setting [10]), 0.031; in series [1] (setting [11]), 0.036; in series [1] (setting [12]), 0.043. Moreover, the “Encapsulation Efficiency” value in series [4] (setting [9]) was 99%; in series [4] (setting [11]), 89%; in series [4] (setting [12]) it was 92%. The “Activity … (luminescence)” value with HepG2 cells is reported as “can effectively deliver mRNA; also recorded: most active”. The “Activity in mediating FVII gene-silencing (residual serum FVII levels)” value in the series with factor VII (FVII) is “active in mediating gene-silencing”. Besides, in series [5], the “Activity … (liver luminescence)” value was “can effectively deliver mRNA”. The “Peptide:Lipid” value is recorded as 0.074 wt/wt in series [2] (setting [13]) and 0.160 wt/wt in series [2] (setting [10]).
As for `CCCCC/C=C\C/C=C\CCCCCCCC(=O)O[C@@H](CCCCCCCC)[C@@H](CCCCCCCC(=O)OCCN(CC)CC)OC(=O)CCCCCCC/C=C\C/C=C\CCCCC` (racemic) [INT-A004, 2-(Diethylamino)ethyl (±)-syn-9,10-dilinoleoxystearate], the “Apparent pKa” value in series [6] worked out at 5.8. In addition, the “Particle Diameter” value in series [1] (setting [9]) amounted to 42 nm; in series [1] (setting [13]) it was 59 nm; in series [1] (setting [10]), 40 nm; in series [1] (setting [11]), 45 nm; in series [1] (setting [12]) it was 58 nm. Also, the “Polydispersity index (PDI)” value in series [1] (setting [9]) is recorded as 0.090; in series [1] (setting [13]), 0.051; in series [1] (setting [10]), 0.034; in series [1] (setting [11]), 0.065; in series [1] (setting [12]) it was 0.024. Also, the “Encapsulation Efficiency” value was found to be 96% in series [4] (setting [9]), 88% in series [4] (setting [11]) and 61% in series [4] (setting [12]). The “Activity … (luminescence)” value with HepG2 cells is “can effectively deliver mRNA”. Further, the “Activity … (liver luminescence)” value in series [5] is reported as “can effectively deliver mRNA”. Also, the “Peptide:Lipid” value in series [2] (setting [13]) was 0.073 wt/wt; in series [2] (setting [10]) it was 0.158 wt/wt.
